Tests used:
Assay type in all cases: cell-based
[1] = tested on: melanoma B16 and 140 cells, Leukemia cells (K562, M), and colon HT-29 cells; test: Anti-clonogenic activity in various cancer cells; conditions: FIG. 3; compared against Ecyd and Gemzar
Procedure: To determine the anti-clonogenic activity of contemplated compounds in various cancer cells experiments were conducted. […] Here again, 4-amino-5-oxo-8-(β-D-ribofuranosyl)pyrido[2,3-d]pyrimidine was used as a representative compound of contemplated compounds and compared against Ecyd and Gemzar.

[2] = tested on: Melanoma: LOX IM VI, MALME-3M, M14, SK-MEL-2, SK-MEL-28, ACC-257, UACC-62; test: Determination of EC50 in cancer cells, melanoma; conditions: Melanoma cell lines; incubated at least 24 hours
Procedure: (§1) Cancer cells were incubated with 4-amino-5-oxo-8-(β-D-ribofuranosyl)pyrido[2,3-d]pyrimidine at various concentrations for a period of at least 24 hours and EC50 was determined. Table 1 gives in vitro activity of 4-amino-5-oxo-8-(β-D-ribofuranosyl)pyrido[2,3-d]pyrimidine in nM concentrations.

[3] = tested on: RNA Polymerase II; test: RNA Polymerase II dependent RNA synthesis; conditions: FIG. 7
Procedure: (§2) To further investigate the influence of contemplated compounds (here again represented by 4-amino-5-oxo-8-(β-D-ribofuranosyl)pyrido[2,3-d]pyrimidine) on RNA synthesis dependent on RNA Polymerase I, II, and III, experiments were conducted.

[4] = tested on: Lung: NCI-H522, NCI-H460, NCI-H322M, NCI-H23, HOP-92, HOP-62, EKVX, A549; test: Determination of EC50 in cancer cells, lung; conditions: Lung tumor cell lines; incubated at least 24 hours
Procedure: as §1

[5] = tested on: Leukemia: SR, RPMI 8226, MOLT-4, K-562, HL-60, CCRF-CEM; test: Determination of EC50 in cancer cells, leukemia; conditions: Leukemia cell lines; incubated at least 24 hours
Procedure: as §1

[6] = tested on: RNA Polymerase III; test: RNA Polymerase III dependent RNA synthesis; conditions: FIG. 6
Procedure: as §2

[7] = tested on: Breast: MCF 7, NCI/ADR-RES, MDA-MB-435, BT-549, T-47D; test: Determination of EC50 in cancer cells, breast; conditions: Breast tumor cell lines; incubated at least 24 hours
Procedure: as §1

[8] = tested on: Liver: PLC/PRF5, Hep3B, Huh7; test: Determination of EC50 in cancer cells, liver; conditions: Liver tumor cell lines; incubated at least 24 hours
Procedure: as §1

[9] = tested on: Prostate: PC-3, DU-145; test: Determination of EC50 in cancer cells, prostate; conditions: Homo sapiens, Prostate tumor cell lines, incubated at least 24 hours
Procedure: as §1

[10] = tested on: CNS: SF-268, SF-295, SF-539, SNB-19, SNB-75, U251; test: Determination of EC50 in cancer cells, CNS; conditions: CNS tumor cell lines; incubated at least 24 hours
Procedure: as §1

[11] = tested on: Colon: SW-620, KM 12, HT29, HCT-15, CHCT-116, HCC-2998, COLO-205; test: Determination of EC50 in cancer cells, colon; conditions: Colon tumor cell lines; incubated at least 24 hours
Procedure: as §1

[12] = tested on: Prostate 81 (prostate cancer cells); test: Induction of apoptosis, histone-DNA ELISA; conditions: Prostate 81 cells, FIGS. 4A and 4B
Procedure: (§3) In order to determine how contemplated compounds interact with cancer cells, NB4 cells (Leukemia) and Prostate 81 (prostate cancer cells) cells were incubated with 4-amino-5-oxo-8-(β-D-ribofuranosyl)pyrido[2,3-d]pyrimidine, Ecyd, and Gemzar, and apoptosis was monitored by histone-DNA ELISA.

[13] = tested on: NB4 cells (Leukemia); test: Induction of apoptosis, histone-DNA ELISA; conditions: FIGS. 4A and 4B
Procedure: as §3

[14] = tested on: MEK; test: MEK-ERK phosphorylation, autoradiograph, NB4 leukemic cells; conditions: FIG. 8
Procedure: (§4) To investigate the possibility of activation of the MEK-ERK signal transduction pathway by contemplated compounds an experiment was conducted. […] Consequently, it is contemplated that the compounds according to the inventive subject matter may induce apoptosis through activation of MEK (which can be abolished by inhibitors of the MEK-ERK pathway).

[15] = tested on: Raf; test: as above; conditions: FIG. 8
Procedure: as §4

[16] = tested on: ERK; test: as above; conditions: FIG. 8
Procedure: as §4

[17] = tested on: K562 cells; test: Inhibition of RNA synthesis, H^3-Uridine incorporation; conditions: various time periods and concentrations, FIG. 5
Excerpt: RNA synthesis was monitored in K562 cells using H^3-Uridine incorporation following a general protocol as outlined below.

[18] = tested on: Pancreas: PaCa-2, PANC-1; test: Determination of EC50 in cancer cells, pancreas; conditions: Pancreas tumor cell lines; incubated at least 24 hours
Procedure: as §1

[19] = tested on: RNA Polymerase I; test: RNA Polymerase I dependent RNA synthesis (28S and 18S rRNA processing); conditions: FIG. 6
Procedure: as §2

[20] = tested on: Kidney: 786-0, A498, ACHN, CAKI-1, RXF 393, UO-31; test: Determination of EC50 in cancer cells, kidney; conditions: Kidney tumor cell lines; incubated at least 24 hours
Procedure: as §1

[21] = tested on: Ovarian: IGROV1, OVCAR-3, OVCAR-4, OVCAR-5, SK-OV-3; test: Determination of EC50 in cancer cells, ovarian; conditions: Ovarian tumor cell lines; incubated at least 24 hours
Procedure: as §1

EC50 [2]: 30 nM
EC50 [4]: 68 nM
EC50 [5]: 34 nM
EC50 [7]: 18 nM
EC50 [8]: 288 nM
EC50 [9]: 19 nM
EC50 [10]: 125 nM
EC50 [11]: 16 nM
EC50 [18]: 188 nM
EC50 [20]: 44 nM
EC50 [21]: 21 nM
Compound: Nc1ncnc2c1c(=O)ccn2[C@@H]1O[C@H](CO)[C@@H](O)[C@H]1O [4-amino-5-oxo-8-(β-D-ribofuranosyl)pyrido[2,3-d]pyrimidine]
anti-clonogenic activity [1]: significant anti-clonogenic activity
inhibition of RNA-Polymerase II dependent RNA synthesis [3]: inhibit RNA-Polymerase II dependent RNA synthesis in a concentration dependent manner
inhibition of RNA Polymerase III [6]: fail to significantly inhibit RNA Polymerase III
induction of apoptosis [12]: induce apoptosis in a dose dependent manner
induction of apoptosis [13]: induce apoptosis in a dose dependent manner
phosphorylation of MEK [14]: enhance phosphorylation of MEK
phosphorylation of Raf [15]: do not enhance phosphorylation of Raf
phosphorylation of ERK [16]: phosphorylation of MEK and ERK
inhibition of RNA synthesis [17]: inhibition of RNA synthesis
inhibition of processing of 28S and 18S rRNA [19]: may inhibit processing of 28S and 18S rRNA

— patent publication US7081449B2, “Pyrido[2,3-d]pyrimidine and pyrimido[4,5-d]pyrimidine nucleosides” (Valeant Research & Development, priority 2000, dated 2006)
